The numbers were not newly measured in patent US20140271890A1, “CONTROLLED-RELEASE PHARMACEUTICAL COMPOSITION” (priority 2013, published 2014), which cites them from elsewhere.

Each structure is given as a SMILES string.

For this data set the following is noted: mean dose between 5 and 10 mg in a conventional formulation.

For `Cc1ccc(-c2nc3ccc(C)cn3c2CC(=O)N(C)C)cc1` [Zolpidem], the duration of action entry was “up to 6 hours”.
